From patent US10253081B2, “Glucagon analogues” (Zealand Pharma A/S, priority 2012, dated 2019)
*1 amine or outer side, *2 acyl side, *3 side chain or, on linkers, in order; H or OH if unused. Where a SMILES comes first, the peptide text is derived from it. Side-chain parts run from the residue outwards. The star is where a group is joined. γGlu = O=C(O)[C@H](CCC(=O)[*:2])N[*:1]; Palmitoyl = CCCCCCCCCCCCCCCC(=O)*

How the values were obtained:
[1] = molecular target: T1, human glucagon receptor (Glucagon-R) (Homo sapiens, UniProt P47871); assay: Glucagon receptor efficacy assay (cAMP AlphaScreen, CHO cells); type: cell-based; conditions: Table 1A; CHO cells expressing human Glucagon-R, cAMP; read-out: EC50 hGCGR CHO-K1
T1 construct: expressed in transfected cells
Method in brief: (§1)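 Stably transfected CHO clones expressing human GLP-1R or glucagon receptor were treated with increasing peptide concentrations for 15 min at room temperature in KRBH containing 0.1 mM IBMX. After lysis, cAMP was quantified by AlphaScreen; EC50 and efficacy relative to GLP-1 or glucagon reference came from curve fitting.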

[2] = molecular target: T2, human glucagon-like peptide 1 receptor (GLP-1R) (Homo sapiens, UniProt P43220); assay: GLP-1 receptor efficacy assay (cAMP AlphaScreen, CHO cells); type: cell-based; conditions: Table 1A; for EC50: CHO cells expressing human GLP-1-R, cAMP, read-out: EC50 hGLP-1R CHO-K1; for Ratio GLP-1/Glucagon: EC50 [GLP-1R]/EC50 [Glucagon-R]
T2 construct: expressed in transfected cells
Method in brief: as §1

[3] = molecular target: T3, endogenous GLP-1 receptors (Mus musculus, UniProt O35659); assay: Agonistic activity on endogenous GLP-1 receptor (cAMP, murine insulinoma cell line); type: cell-based; conditions: intracellular cAMP, 15 minutes at 26° C.; read-out: EC50 GLP-1R (murine insulinoma cells)
T3 construct: Agonistic activity of the test compounds on endogenous GLP-1 receptors; endogenous in cells
T3 sequence (O35659 22-463): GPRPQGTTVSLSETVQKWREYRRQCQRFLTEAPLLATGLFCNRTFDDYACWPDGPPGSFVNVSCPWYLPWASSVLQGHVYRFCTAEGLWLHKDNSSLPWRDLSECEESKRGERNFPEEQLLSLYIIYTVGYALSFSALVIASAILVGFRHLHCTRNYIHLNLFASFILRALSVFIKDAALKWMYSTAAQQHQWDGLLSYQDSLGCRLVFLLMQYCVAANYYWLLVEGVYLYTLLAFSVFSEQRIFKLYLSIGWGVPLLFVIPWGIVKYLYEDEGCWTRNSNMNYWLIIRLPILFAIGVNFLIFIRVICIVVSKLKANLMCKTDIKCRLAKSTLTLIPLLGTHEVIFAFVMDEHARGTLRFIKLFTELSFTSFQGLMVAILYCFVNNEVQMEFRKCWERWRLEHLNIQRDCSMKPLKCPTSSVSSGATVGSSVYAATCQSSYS
Method in brief: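 Murine insulinoma cells were exposed 15 min at 26° C in KRBH with 0.1% DMSO to compound or GLP-1 ([…]), then cAMP was measured by AlphaScreen against a standard curve, in quadruplicate. pEC50 came from curve fits; % CTL was normalised to the maximal GLP-1 cAMP response.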

[4] = Oral glucose tolerance test (OGTT); type: in vivo, C57BL/6J mice; conditions: blood glucose AUC 0-120 min, 10 nmol/kg s.c. 4 h before oral glucose 2 g/kg
Experimental: Male C57BL/6J mice were fasted for 10 h before they received an oral glucose bolus of 2 g/kg body weight. Peptides were dissolved in saline buffered with 25 mM phosphate and administered at a dose of 10 nmol/kg body weight by subcutaneous injection 4 h before the glucose bolus. Control animals received a vehicle injection only. Group size was 7 animals per group. A pre-dose and a pre-glucose (0 min) blood sample were obtained by tail bleeding and blood glucose was measured with a glucometer. Additional samples of tail blood for measuring blood glucose were obtained 15 min, 30 min, 60 min, 90 min and 120 min after the glucose challenge. […] Calculation of AUC was done by the trapezoidal rule without baseline correction. The data are presented as mean±S.E.M. Statistical comparisons were conducted by one-way ANOVA followed by Tukey's post test. Vehicle alone was used as a control.

T1 sequence (P47871 26-477): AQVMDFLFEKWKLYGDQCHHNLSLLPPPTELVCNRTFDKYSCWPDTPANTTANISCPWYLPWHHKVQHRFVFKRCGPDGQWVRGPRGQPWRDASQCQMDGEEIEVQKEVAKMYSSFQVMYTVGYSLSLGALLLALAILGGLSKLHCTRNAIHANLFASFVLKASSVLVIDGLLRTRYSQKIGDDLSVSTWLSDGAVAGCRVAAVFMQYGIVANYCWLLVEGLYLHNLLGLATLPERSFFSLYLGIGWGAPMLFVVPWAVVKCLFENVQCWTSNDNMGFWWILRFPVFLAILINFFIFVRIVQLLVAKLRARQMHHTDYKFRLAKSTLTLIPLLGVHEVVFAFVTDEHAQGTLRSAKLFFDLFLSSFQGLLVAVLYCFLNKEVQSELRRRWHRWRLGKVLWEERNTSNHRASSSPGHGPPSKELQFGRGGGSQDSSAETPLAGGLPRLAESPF
T2 sequence (P43220 24-463): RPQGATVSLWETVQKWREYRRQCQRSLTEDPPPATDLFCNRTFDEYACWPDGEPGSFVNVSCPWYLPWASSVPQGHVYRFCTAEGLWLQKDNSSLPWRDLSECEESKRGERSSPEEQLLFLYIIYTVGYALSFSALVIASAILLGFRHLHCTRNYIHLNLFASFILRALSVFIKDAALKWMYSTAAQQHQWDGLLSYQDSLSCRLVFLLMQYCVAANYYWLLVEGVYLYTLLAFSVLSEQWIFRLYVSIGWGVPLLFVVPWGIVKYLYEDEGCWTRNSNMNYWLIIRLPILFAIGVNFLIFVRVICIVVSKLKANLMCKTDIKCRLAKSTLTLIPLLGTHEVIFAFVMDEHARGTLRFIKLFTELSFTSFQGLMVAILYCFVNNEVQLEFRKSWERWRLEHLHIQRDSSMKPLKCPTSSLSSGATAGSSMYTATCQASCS

EC50 [1] [nM]	EC50 [2] [nM]	Ratio GLP-1/Glucagon [2]	EC50 [3] [nM]	Structure (SMILES)	AUC (% Ctrl) [4] [% Ctrl]
0.46	0.35	0.76	1.14	CCCCCCCCCCCCCCCC(=O)N[C@@H](CCC(=O)NCCCC[C@H](NC(=O)[C@H](CO)NC(=O)[C@H](CC(=O)O)NC(=O)[C@H](CC(C)C)NC(=O)[C@H](Cc1ccc(O)cc1)NC(=O)[C@H](CCCNC(=N)N)NC(=O)[C@H](CO)NC(=O)[C@H](Cc1ccc(O)cc1)NC(=O)[C@H](CC(=O)O)NC(=O)[C@H](CO)NC(=O)[C@@H](NC(=O)[C@H](Cc1ccccc1)NC(=O)[C@@H](NC(=O)CNC(=O)[C@H](CCC(N)=O)NC(=O)[C@H](CO)NC(=O)[C@@H](N)Cc1c[nH]cn1)[C@@H](C)O)[C@@H](C)O)C(=O)N[C@@H](C)C(=O)N[C@@H](C)C(=O)N[C@@H](CCC(=O)O)C(=O)N[C@@H](CC(=O)O)C(=O)N[C@@H](Cc1ccccc1)C(=O)N[C@H](C(=O)N[C@@H](CCC(=O)O)C(=O)N[C@@H](Cc1c[nH]c2ccccc12)C(=O)N[C@@H](CC(C)C)C(=O)N[C@@H](CC(C)C)C(=O)N[C@@H](CCCNC(=N)N)C(=O)N[C@@H](C)C(N)=O)C(C)C)C(=O)O [Compound 6, H-HSQGTFTSDYSRYLDS-K(Hexadecanoyl-isoGlu)-AAEDFVEWLLRA-NH2] (H-HSQGTFTSDYSRYLDSK([γGlu-Palmitoyl])AAEDFVEWLLRA-NH2)	50
0.45	0.27	0.60	0.84	CCCCCCCCCCCCCCCC(=O)N[C@@H](CCC(=O)NCCCC[C@H](NC(=O)[C@H](CO)NC(=O)[C@H](CC(=O)O)NC(=O)[C@H](CC(C)C)NC(=O)[C@H](Cc1ccc(O)cc1)NC(=O)[C@H](CCCCN)NC(=O)[C@H](CO)NC(=O)[C@H](Cc1ccc(O)cc1)NC(=O)[C@H](CC(=O)O)NC(=O)[C@H](CO)NC(=O)[C@@H](NC(=O)[C@H](Cc1ccccc1)NC(=O)[C@@H](NC(=O)CNC(=O)[C@H](CCC(N)=O)NC(=O)[C@H](CO)NC(=O)[C@@H](N)Cc1c[nH]cn1)[C@@H](C)O)[C@@H](C)O)C(=O)N[C@@H](C)C(=O)N[C@@H](C)C(=O)N[C@@H](CCC(=O)O)C(=O)N[C@@H](CC(=O)O)C(=O)N[C@@H](Cc1ccccc1)C(=O)N[C@H](C(=O)N[C@@H](CCC(=O)O)C(=O)N[C@@H](Cc1c[nH]c2ccccc12)C(=O)N[C@@H](CC(C)C)C(=O)N[C@@H](CC(C)C)C(=O)N[C@@H](CCCNC(=N)N)C(=O)N[C@@H](C)C(N)=O)C(C)C)C(=O)O [Compound 7, H-HSQGTFTSDYSKYLDS-K(Hexadecanoyl-isoGlu)-AAEDFVEWLLRA-NH2] (H-HSQGTFTSDYSKYLDSK([γGlu-Palmitoyl])AAEDFVEWLLRA-NH2)	57
0.29	0.41	1.41	0.95	CCCCCCCCCCCCCCCC(=O)N[C@@H](CCC(=O)NCCCC[C@H](NC(=O)[C@H](CO)NC(=O)[C@H](CC(=O)O)NC(=O)[C@H](CC(C)C)NC(=O)[C@H](Cc1ccc(O)cc1)NC(=O)[C@H](CCCCN)NC(=O)[C@H](CO)NC(=O)[C@H](Cc1ccc(O)cc1)NC(=O)[C@H](CC(=O)O)NC(=O)[C@H](CO)NC(=O)[C@@H](NC(=O)[C@H](Cc1ccccc1)NC(=O)[C@@H](NC(=O)CNC(=O)[C@H](CCC(N)=O)NC(=O)[C@H](CO)NC(=O)[C@@H](N)Cc1c[nH]cn1)[C@@H](C)O)[C@@H](C)O)C(=O)N[C@@H](C)C(=O)N[C@@H](C)C(=O)N[C@@H](Cc1c[nH]cn1)C(=O)N[C@@H](CC(=O)O)C(=O)N[C@@H](Cc1ccccc1)C(=O)N[C@H](C(=O)N[C@@H](CCC(=O)O)C(=O)N[C@@H](Cc1c[nH]c2ccccc12)C(=O)N[C@@H](CC(C)C)C(=O)N[C@@H](CC(C)C)C(=O)N[C@@H](CO)C(N)=O)C(C)C)C(=O)O [Compound 8, H-HSQGTFTSDYSKYLDS-K(Hexadecanoyl-isoGlu)-AAHDFVEWLLS-NH2] (H-HSQGTFTSDYSKYLDSK([γGlu-Palmitoyl])AAHDFVEWLLS-NH2)	50
0.25	0.35	1.40	1.02	CCCCCCCCCCCCCCCC(=O)N[C@@H](CCC(=O)NCCCC[C@H](NC(=O)[C@H](CO)NC(=O)[C@H](CC(=O)O)NC(=O)[C@H](CC(C)C)NC(=O)[C@H](Cc1ccc(O)cc1)NC(=O)[C@H](CCCCN)NC(=O)[C@H](CO)NC(=O)[C@H](Cc1ccc(O)cc1)NC(=O)[C@H](CC(=O)O)NC(=O)[C@H](CO)NC(=O)[C@@H](NC(=O)[C@H](Cc1ccccc1)NC(=O)[C@@H](NC(=O)CNC(=O)[C@H](CCC(N)=O)NC(=O)[C@H](CO)NC(=O)[C@@H](N)Cc1c[nH]cn1)[C@@H](C)O)[C@@H](C)O)C(=O)N[C@@H](C)C(=O)N[C@@H](C)C(=O)N[C@@H](Cc1c[nH]cn1)C(=O)N[C@@H](CC(=O)O)C(=O)N[C@@H](Cc1ccccc1)C(=O)N[C@H](C(=O)N[C@@H](CCC(=O)O)C(=O)N[C@@H](Cc1c[nH]c2ccccc12)C(=O)N[C@@H](CC(C)C)C(=O)N[C@@H](CC(C)C)C(=O)N[C@@H](CCCNC(=N)N)C(=O)O)C(C)C)C(=O)O [Compound 9, H-HSQGTFTSDYSKYLDS-K(Hexadecanoyl-isoGlu)-AAHDFVEWLLR-OH] (H-HSQGTFTSDYSKYLDSK([γGlu-Palmitoyl])AAHDFVEWLLR-OH)	57
0.23	0.23	1.00	0.33	CCCCCCCCCCCCCCCC(=O)N[C@@H](CCC(=O)NCCCC[C@H](NC(=O)[C@H](CCC(=O)O)NC(=O)[C@H](CC(=O)O)NC(=O)[C@H](CC(C)C)NC(=O)[C@H](Cc1ccc(O)cc1)NC(=O)[C@H](CCCCN)NC(=O)[C@H](CO)NC(=O)[C@H](Cc1ccc(O)cc1)NC(=O)[C@H](CC(=O)O)NC(=O)[C@H](CO)NC(=O)[C@@H](NC(=O)[C@H](Cc1ccccc1)NC(=O)[C@@H](NC(=O)CNC(=O)[C@H](CCC(N)=O)NC(=O)[C@H](CO)NC(=O)[C@@H](N)Cc1c[nH]cn1)[C@@H](C)O)[C@@H](C)O)C(=O)N[C@@H](C)C(=O)N[C@@H](C)C(=O)N[C@@H](Cc1c[nH]cn1)C(=O)N[C@@H](CCC(=O)O)C(=O)N[C@@H](Cc1ccccc1)C(=O)N[C@H](C(=O)N[C@@H](CCC(=O)O)C(=O)N[C@@H](Cc1c[nH]c2ccccc12)C(=O)N[C@@H](CC(C)C)C(=O)N[C@@H](CCC(=O)O)C(=O)N[C@@H](CO)C(=O)N[C@@H](C)C(N)=O)C(C)C)C(=O)O [Compound 10, H-HSQGTFTSDYSKYLDE-K(Hexadecanoyl-isoGlu)-AAHEFVEWLESA-NH2] (H-HSQGTFTSDYSKYLDEK([γGlu-Palmitoyl])AAHEFVEWLESA-NH2)	46
0.43	0.37	0.86	1.62	CCCCCCCCCCCCCCCC(=O)N[C@@H](CCC(=O)NCCCC[C@H](NC(=O)[C@H](CO)NC(=O)[C@H](CC(=O)O)NC(=O)[C@H](CC(C)C)NC(=O)[C@H](Cc1ccc(O)cc1)NC(=O)[C@H](CCCNC(=N)N)NC(=O)[C@H](CO)NC(=O)[C@H](Cc1ccc(O)cc1)NC(=O)[C@H](CC(=O)O)NC(=O)[C@H](CO)NC(=O)[C@@H](NC(=O)[C@H](Cc1ccccc1)NC(=O)[C@@H](NC(=O)CNC(=O)[C@H](CCC(N)=O)NC(=O)[C@H](CO)NC(=O)[C@@H](N)Cc1c[nH]cn1)[C@@H](C)O)[C@@H](C)O)C(=O)N[C@@H](C)C(=O)N[C@@H](C)C(=O)N[C@@H](Cc1c[nH]cn1)C(=O)N[C@@H](CC(=O)O)C(=O)N[C@@H](Cc1ccccc1)C(=O)N[C@H](C(=O)N[C@@H](CCC(=O)O)C(=O)N[C@@H](Cc1c[nH]c2ccccc12)C(=O)N[C@@H](CC(C)C)C(=O)N[C@@H](CC(C)C)C(=O)N[C@@H](CO)C(=O)N[C@@H](C)C(N)=O)C(C)C)C(=O)O [Compound 12, H-HSQGTFTSDYSRYLDS-K(Hexadecanoyl-isoGlu)-AAHDFVEWLLSA-NH2] (H-HSQGTFTSDYSRYLDSK([γGlu-Palmitoyl])AAHDFVEWLLSA-NH2)	56
